According to patent publication EP4603105A1, “PHARMACEUTICAL COMPOSITION CONTAINING CYCLIC COMPOUND HAVING SELECTIVE KRAS INHIBITORY EFFECT AGAINST HRAS AND NRAS” (CHUGAI SEIYAKU KABUSHIKI KAISHA, priority 2022, dated 2024):
Read-outs that look alike come from different tables or passages of the source. *1 amine or outer side, *2 acyl side, *3 side chain or, on linkers, in order; H or OH if unused. Where a SMILES comes first, the peptide text is derived from it. Bridges are numbered along the chain shown (N, C = ends). [ ]: non-standard residue; d: D form. The star is where a group is joined. hPhe(3-Cl-4-CF3) = N[C@@H](CCc1ccc(C(F)(F)F)c(Cl)c1)C(=O)O; NPrPhe(4-CF3) = CCCN[C@@H](Cc1ccc(C(F)(F)F)cc1)C(=O)O; 3Oxa8azabicyclo(3.2.1)octane = C1CC2COCC1N2*; X30 = CCN([C@H](C(=O)[*:2])C1CCCC1)[*:1]; Pip(4,4-F2) = O=C(O)[C@@H]1CC(F)(F)CCN1; NMeGly(cPent) = CN[C@H](C(=O)O)C1CCCC1; NMeD = CN[C@@H](CC(=O)O)C(=O)O; NMeL = CN[C@@H](CC(C)C)C(=O)O; Morpholide = C1CN(*)CCO1; NMeA = CN[C@@H](C)C(=O)O; Ac5c = NC1(C(=O)O)CCCC1; Aze = O=C(O)[C@@H]1CCN1; Sar = CNCC(=O)O

Key:
[1] = target: GDP-bound NRAS wild-type protein (Homo sapiens, UniProt P01111); assay: Binding to NRAS by surface plasmon resonance (SPR), KD and KD ratio to KRAS
Sequence of GDP-bound NRAS wild-type protein (P01111 whole entry): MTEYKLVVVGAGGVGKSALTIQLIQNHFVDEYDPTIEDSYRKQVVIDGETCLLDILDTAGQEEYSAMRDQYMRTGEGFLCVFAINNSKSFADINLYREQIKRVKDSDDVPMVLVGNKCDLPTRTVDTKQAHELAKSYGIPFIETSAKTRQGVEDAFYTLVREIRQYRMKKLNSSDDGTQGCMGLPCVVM
How it was run: (§1)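 Measured at 30°C: SPR with GDP-loaded, E. coli-expressed biotin-Avi RAS captured (~100–300 RU), ascending 75 s compound injections, HBS pH 7.4 with GDP, MgCl2, 4% DMSO. KD from 1:1 fit.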

HRAS wild-type protein = HRAS wild-type protein (Homo sapiens, UniProt P01112); assay: Binding to HRAS by surface plasmon resonance (SPR), KD and KD ratio to KRAS
Sequence of HRAS wild-type protein (P01112 whole entry): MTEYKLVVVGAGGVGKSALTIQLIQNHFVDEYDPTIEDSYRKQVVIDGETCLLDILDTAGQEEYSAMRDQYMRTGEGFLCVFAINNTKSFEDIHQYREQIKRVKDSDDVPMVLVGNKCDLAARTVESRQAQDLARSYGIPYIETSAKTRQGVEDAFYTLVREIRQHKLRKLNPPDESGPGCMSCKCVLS
How it was run: as §1

[2] = system: human lung cancer strain NCI-H441; format: cell-based
How it was run: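 Signal came from […] measured per well once the reagent was added. Beforehand, cells were cultured at 37°C and 5% carbon dioxide on a compound series serially diluted in dimethyl sulfoxide.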

[3] = ratio of the KD value with respect to GDP-bound NRAS wild-type protein to the KD value with respect to KRAS
[4] = ratio of the KD value with respect to HRAS wild-type protein to the KD value with respect to KRAS
[5] = ratio of KD value for GDP-bound NRAS wild-type protein to KD value for KRAS (SPR)
[6] = ratio of KD value for HRAS wild-type protein to KD value for KRAS (SPR)
[7] = ratio of KD for GDP-bound NRAS wild-type protein to KD for KRAS
[8] = ratio of KD for HRAS wild-type protein to KD for KRAS

Structure (SMILES) | NRAS /KRAS [1, 3] | HRAS /KRAS (HRAS wild-type protein; [4]) | IC50 [2] | NRAS /KRAS [1, 5] | HRAS /KRAS (HRAS wild-type protein; [6]) | NRAS /KRAS [1, 7] | HRAS /KRAS (HRAS wild-type protein; [8]) | IC50 ([2]; NCI-H441 cells, 4 days, CellTiter-Glo, read-out: NCl-H441 IC50)
CCO[C@@H]1C[C@H]2C(=O)NC3(CC(C)(C)C3)C(=O)N(C)[C@@H](C(CC)CC)C(=O)N(C)[C@H](C(=O)N(C)C)CC(=O)N(C)[C@@H](CC3CCC3)C(=O)N[C@@H]([C@@H](C)CC)C(=O)N(C)CC(=O)N(C)[C@H]3C/C=C\CCN(C3=O)[C@@H](Cc3ccc(C)cc3)C(=O)N(C)CC(=O)N[C@@H](CCc3ccc(C(F)(F)F)c(Cl)c3)C(=O)N2C1 [PP2156] | AA (a compound having 20 or more is denoted as AA) | A (a compound having 10 or more and less than 20 is denoted as A) | 0.0206 µM | – | – | – | – | –
CCO[C@@H]1C[C@H]2C(=O)NC3(CC(C)(C)C3)C(=O)N(C)[C@@H](C(CC)CC)C(=O)N(C)[C@H](C(=O)N(C)C)CC(=O)N(C)[C@@H](CC3CCC3)C(=O)N[C@@H]([C@@H](C)CC)C(=O)N(C)CC(=O)N(C)[C@H]3C/C=C\CCN(C3=O)[C@@H](Cc3ccc(C(F)(F)F)cc3)C(=O)N(C)CC(=O)N[C@@H](CCc3ccc(Cl)c(Cl)c3)C(=O)N2C1 [PP2180] | AA (a compound having 20 or more is denoted as AA) | A (a compound having 10 or more and less than 20 is denoted as A) | 0.0278 µM | – | – | – | – | –
C#CC[C@H]1C(=O)N[C@@H]([C@@H](C)CC)C(=O)N(C)CC(=O)N(C)[C@H]2C/C=C\CCN(C2=O)[C@@H](Cc2ccc(C(F)(F)F)cc2)C(=O)N(C)CC(=O)N[C@@H](CCc2cc(F)c(C(F)(F)F)c(F)c2)C(=O)N2C[C@H](OCC)C[C@H]2C(=O)NC2(CC(F)(F)C2)C(=O)N(C)[C@@H](C2CCCC2)C(=O)N(C)[C@H](C(=O)N(C)CCC)CC(=O)N1C [PP1737] | – | – | 0.0027 µM | A (a compound having 10 or more and less than 20 is denoted as A) | A (a compound having 10 or more and less than 20 is denoted as A) | – | – | –
CCO[C@@H]1C[C@H]2C(=O)NC3(CCC3)C(=O)N(C)[C@@H](C3CCCC3)C(=O)N(C)[C@H](C(=O)N(C)CC)CC(=O)N(C)[C@@H](C3CCC3)C(=O)N[C@@H]([C@@H](C)CC)C(=O)N(C)CC(=O)N(C)[C@H]3C/C=C\CCN(C3=O)[C@@H](Cc3ccc(C(F)(F)F)cc3)C(=O)N(C)CC(=O)N[C@@H](CCc3cc(F)c(C(F)(F)F)c(F)c3)C(=O)N2C1 [PP1996] | A (a compound having 10 or more and less than 20 is denoted as A) | B (a compound having 3 or more and less than 10 is denoted as B) | 0.0155 µM | – | – | – | – | –
CCC[C@H]1C(=O)N[C@@H]([C@@H](C)CC)C(=O)N(C)CC(=O)N(C)[C@H]2C/C=C\CCN(C2=O)[C@@H](Cc2ccc(C(F)(F)F)cc2)C(=O)N(C)CC(=O)N[C@@H](CCc2cc(C)c(C(F)F)c(C)c2)C(=O)N2C[C@H](OCC)C[C@H]2C(=O)NC2(CC(C)(C)C2)C(=O)N(C)[C@@H](C2CCCC2)C(=O)N(C)[C@H](C(=O)N(C)C)CC(=O)N1C [PP2857] | – | – | – | – | – | A (a compound having 10 or more and less than 20 is denoted as A) | A (a compound having 10 or more and less than 20 is denoted as A) | 0.0616 µM
CCCN1C(=O)CN(C)C(=O)CN(C)C(=O)[C@H]([C@@H](C)CC)NC(=O)[C@H](CC(C)C)N(C)C(=O)C[C@@H](C(=O)N2C3CCC2COC3)N(C)C(=O)[C@H](C2CCCC2)N(C)C(=O)C2(CCCC2)NC(=O)[C@@H]2CCCN2C(=O)[C@H](CCc2ccc(C(F)(F)F)c(Cl)c2)NC(=O)CN(C)C(=O)[C@@H]1Cc1ccc(C(F)(F)F)cc1 [PP0173] ([NMeL]I[Sar][Sar][NPrPhe(4-CF3)][Sar][hPhe(3-Cl-4-CF3)]P[Ac5c][NMeGly(cPent)][NMeD]-{3Oxa8azabicyclo(3.2.1)octane}; lactam N-11) | – | – | 0.0116 µM | – | – | B (a compound having 3 or more and less than 10 is denoted as B) | C (A compound having a KD ratio of 0.1 or more and less than 3 is denoted as C) | –
CCO[C@@H]1C[C@H]2C(=O)NC3(CCC3)C(=O)N(C)[C@@H](C3CCCC3)C(=O)N(CCC3CCCC3)[C@H](C(=O)N(C)C)CC(=O)N(C)[C@@H](CC)C(=O)N[C@@H]([C@@H](C)CC)C(=O)N(C)CC(=O)N(C)[C@H]3C/C=C\CCN(C3=O)[C@@H](Cc3ccc(C(F)(F)F)cc3)C(=O)N(C)CC(=O)N[C@@H](CCc3cc(F)c(C(F)(F)F)c(F)c3)C(=O)N2C1 [PP0982] | – | – | 0.372 µM | – | – | AA (a compound having 20 or more is denoted as AA) | A (a compound having 10 or more and less than 20 is denoted as A) | –
CC[C@H](C)[C@@H]1NC(=O)[C@H](CC(C)C)N(C)C(=O)C[C@@H](C(=O)N2CCOCC2)N(C)C(=O)[C@H](C2CCCC2)N(C)C(=O)C2(CCCC2)NC(=O)[C@@H]2CCCN2C(=O)[C@H](CCc2ccc(C(F)(F)F)c(Cl)c2)NC(=O)CN(C)C(=O)[C@H](C2CCCC2)N(CC)C(=O)[C@@H]2CCN2C(=O)[C@H](C)N(C)C1=O [PP0003] ([NMeL]I[NMeA][Aze][X30][Sar][hPhe(3-Cl-4-CF3)]P[Ac5c][NMeGly(cPent)][NMeD]-Morpholide; lactam N-11) | – | – | 0.0414 µM | – | – | C (A compound having a KD ratio of 0.1 or more and less than 3 is denoted as C) | C (A compound having a KD ratio of 0.1 or more and less than 3 is denoted as C) | –
CCCN1C(=O)[C@@H]2CCN2C(=O)[C@H](C)N(C)C(=O)[C@H]([C@@H](C)CC)NC(=O)[C@H](CC(C)C)N(C)C(=O)C[C@@H](C(=O)N2CCOCC2)N(C)C(=O)[C@H](C2CCCC2)N(C)C(=O)C2(CCCC2)NC(=O)[C@@H]2CC(F)(F)CCN2C(=O)[C@H](CCc2ccc(C(F)(F)F)c(Cl)c2)NC(=O)CN(C)C(=O)[C@@H]1Cc1ccc(C(F)(F)F)cc1 [PP0285] ([NMeL]I[NMeA][Aze][NPrPhe(4-CF3)][Sar][hPhe(3-Cl-4-CF3)][Pip(4,4-F2)][Ac5c][NMeGly(cPent)][NMeD]-Morpholide; lactam N-11) | – | – | 0.0189 µM | – | – | C (A compound having a KD ratio of 0.1 or more and less than 3 is denoted as C) | B (a compound having 3 or more and less than 10 is denoted as B) | –
CCC[C@H]1C(=O)N[C@@H]([C@@H](C)CC)C(=O)N(C)CC(=O)N(C)[C@H]2C/C=C\CCN(C2=O)[C@@H](Cc2ccc(C)cc2)C(=O)N(C)CC(=O)N[C@@H](CCc2ccc(C(F)(F)F)c(Cl)c2)C(=O)N2C[C@H](OCC)C[C@H]2C(=O)NC2(CC(C)(C)C2)C(=O)N(C)[C@@H](CC(F)(F)F)C(=O)N(C)[C@H](C(=O)N(C)C)CC(=O)N1C [PP2226] | A (a compound having 10 or more and less than 20 is denoted as A) | A (a compound having 10 or more and less than 20 is denoted as A) | 0.0147 µM | – | – | – | – | –
CCO[C@@H]1C[C@H]2C(=O)NC3(CC(C)(C)C3)C(=O)N(C)[C@@H](C3CCCC3)C(=O)N(C)[C@H](C(=O)N(C)CC)CC(=O)N(C)[C@@H](CC)C(=O)N[C@@H]([C@@H](C)CC)C(=O)N(C)CC(=O)N(C)[C@H]3C/C=C\CCN(C3=O)[C@@H](Cc3ccc(C(F)(F)F)cc3)C(=O)N(C)CC(=O)N[C@@H](CCc3cc(F)c(C(F)(F)F)c(F)c3)C(=O)N2C1 [PP1579] | – | – | 0.0041 µM | A (a compound having 10 or more and less than 20 is denoted as A) | B (a compound having 3 or more and less than 10 is denoted as B) | – | – | –
CC[C@H](C)[C@@H]1NC(=O)[C@H](CC(C)C)N(C)C(=O)C[C@@H](C(=O)N2CCOCC2)N(C)C(=O)[C@H](C2CCCC2)N(C)C(=O)C2(CCC2)NC(=O)[C@@H]2[C@H](O)CCN2C(=O)[C@H](CCc2cc(F)c(C(F)(F)F)c(F)c2)NC(=O)CN(C)C(=O)[C@H](Cc2ccc(C(F)(F)F)cc2)N2CCCC[C@@H](C2=O)N(C)C(=O)CN(C)C1=O [PP0870] | – | – | 0.0797 µM | – | – | B (a compound having 3 or more and less than 10 is denoted as B) | B (a compound having 3 or more and less than 10 is denoted as B) | –
CCO[C@@H]1C[C@H]2C(=O)NC3(CCC3)C(=O)N(C)[C@@H](C3CCCC3)C(=O)N(C)[C@H](C(=O)N(C)C)CC(=O)N(C)[C@@H](CC)C(=O)N[C@@H]([C@@H](C)CC)C(=O)N(C)CC(=O)N(C)[C@H]3CCCCCN(C3=O)[C@@H](Cc3ccc(F)c(Cl)c3)C(=O)N(C)CC(=O)N[C@@H](CCc3cc(F)c(C(F)(F)F)c(F)c3)C(=O)N2C1 [PP0909] | – | – | 0.0581 µM | – | – | B (a compound having 3 or more and less than 10 is denoted as B) | B (a compound having 3 or more and less than 10 is denoted as B) | –
CC[C@H](C)[C@@H]1NC(=O)[C@@H]2CCCCCc3ccc(cc3)C[C@@H](C(=O)N(C)CC(=O)N[C@@H](CCc3ccc(C(F)(F)F)c(OC)c3)C(=O)N3CC4(CC4)C[C@H]3C(=O)NC3(CC(C)(C)C3)C(=O)N(C)[C@@H](C3CCCC3)C(=O)N(C)[C@H](C(=O)N(C)C)CC(=O)N2C)N2CC/C=C\C[C@@H](C2=O)N(C)C(=O)CN(C)C1=O [PP3074] | – | – | 0.0024 µM | – | – | A (a compound having 10 or more and less than 20 is denoted as A) | A (a compound having 10 or more and less than 20 is denoted as A) | –
CCO[C@@H]1C[C@H]2C(=O)NC3(CC(F)(F)C3)C(=O)N(C)[C@@H](C(CC)CC)C(=O)N(C)C(C(C)C)CC(=O)N(C)[C@@H](CC)C(=O)N[C@@H]([C@@H](C)CC)C(=O)N(C)CC(=O)N(C)[C@H]3C/C=C\CCN(C3=O)[C@@H](Cc3ccc(C(F)(F)F)cc3)C(=O)N(C)CC(=O)N[C@@H](CCc3cc(F)c(C(F)(F)F)c(F)c3)C(=O)N2C1 (stereo partly drawn) [PP1591] | – | – | 0.0854 µM | A (a compound having 10 or more and less than 20 is denoted as A) | A (a compound having 10 or more and less than 20 is denoted as A) | – | – | –
